# Measured values reported in patent US10118935B2, “Melampomagnolide B dimers” (priority 2014, dated 2018).
# Assays:
# SR = assay: NCI 60 cell line five dose, Leukemia
# ACHN = assay: NCI 60 cell line five dose, Renal Cancer
# SF-268 = assay: NCI 60 cell line five dose, CNS Cancer
# SK-MEL-5 = assay: NCI 60 cell line five dose, Melanoma
# UO-31 = assay: NCI 60 cell line five dose, Renal Cancer
# U251 = assay: NCI 60 cell line five dose, CNS Cancer
# SK-MEL-28 = assay: NCI 60 cell line five dose, Melanoma
# NCI-H522 = assay: NCI 60 cell line five dose, Non-Small Cell Lung Cancer
# HCT-15 = assay: NCI 60 cell line five dose, Colon Cancer
# OVCAR-4 = assay: NCI 60 cell line five dose, Ovarian Cancer
# NCI-H322M = assay: NCI 60 cell line five dose, Non-Small Cell Lung Cancer
# UACC-62 = assay: NCI 60 cell line five dose, Melanoma
# K-562 = assay: NCI 60 cell line five dose, Leukemia
# MALME-3M = assay: NCI 60 cell line five dose, Melanoma; conditions: MAL1ME−3M
# KM12 = assay: NCI 60 cell line five dose, Colon Cancer
# SK-OV-3 = assay: NCI 60 cell line five dose, Ovarian Cancer
# HCC-2998 = assay: NCI 60 cell line five dose, Colon Cancer
# MDA-MB-231/ATCC = assay: NCI 60 cell line five dose, Breast Cancer
# COLO 205 = assay: NCI 60 cell line five dose, Colon Cancer
# SW-620 = assay: NCI 60 cell line five dose, Colon Cancer
# BT-549 = assay: NCI 60 cell line five dose, Breast Cancer
# MDA-MB-435 = assay: NCI 60 cell line five dose, Melanoma
compound,measurement,setting,value
"C=C1C(=O)O[C@H]2[C@H]1CC/C(COC(=O)NCCCCCCCCNC(=O)OC/C1=C/CC[C@@]3(C)O[C@H]3[C@H]3OC(=O)C(=C)[C@@H]3CC1)=C\CC[C@@]1(C)O[C@@H]21 [JVM 3-62, bis(((1aR,7aS, 10aS, 10bS, E)-1a-Methyl-8-methylene-9-oxo-1a,2,3,6,7,7a,8,9,10a,10b-decahydrooxireno[2′,3′:9,10]cyclodeca[1,2-b]furan-5-yl)methyl)octane-1,8-diyldicarbamate]",Percent Growth,SR; Log10 Concentration −4.0,−31%
same,Percent Growth,SR; Log10 Concentration −5.0,−26%
same,Percent Growth,SR; Log10 Concentration −6.0,6%
same,Percent Growth,SR; Log10 Concentration −7.0,95%
same,Percent Growth,SR; Log10 Concentration −8.0,98%
same,GI50,SR; molar,0.317 µM
same,CC50,"SR; read-out: LC50, molar",> 100 µM
same,Percent Growth,ACHN; Log10 Concentration −4.0,−78%
same,Percent Growth,ACHN; Log10 Concentration −5.0,−84%
same,Percent Growth,ACHN; Log10 Concentration −6.0,−31%
same,Percent Growth,ACHN; Log10 Concentration −7.0,100%
same,Percent Growth,ACHN; Log10 Concentration −8.0,98%
same,GI50,ACHN; molar,0.268 µM
same,TGI,ACHN; molar,6.62E−7
same,CC50,"ACHN; read-out: LC50, molar",2.85 µM
same,Percent Growth,SF-268; Log10 Concentration −4.0,−59%
same,Percent Growth,SF-268; Log10 Concentration −5.0,−66%
same,Percent Growth,SF-268; Log10 Concentration −6.0,50%
same,Percent Growth,SF-268; Log10 Concentration −7.0,104%
same,Percent Growth,SF-268; Log10 Concentration −8.0,101%
same,GI50,SF-268; molar,0.999 µM
same,TGI,SF-268; molar,2.69E−6
same,CC50,"SF-268; read-out: LC50, molar",7.24 µM
same,Percent Growth,SK-MEL-5; Log10 Concentration −4.0,−87%
same,Percent Growth,SK-MEL-5; Log10 Concentration −5.0,−89%
same,Percent Growth,SK-MEL-5; Log10 Concentration −6.0,63%
same,Percent Growth,SK-MEL-5; Log10 Concentration −7.0,95%
same,Percent Growth,SK-MEL-5; Log10 Concentration −8.0,99%
same,GI50,SK-MEL-5; molar,1.21 µM
same,TGI,SK-MEL-5; molar,2.59E−6
same,CC50,"SK-MEL-5; read-out: LC50, SK-MEL-6, molar",5.53 µM
same,Percent Growth,UO-31; Log10 Concentration −4.0,−87%
same,Percent Growth,UO-31; Log10 Concentration −5.0,−94%
same,Percent Growth,UO-31; Log10 Concentration −6.0,48%
same,Percent Growth,UO-31; Log10 Concentration −7.0,90%
same,Percent Growth,UO-31; Log10 Concentration −8.0,90%
same,GI50,UO-31; molar,0.88 µM
same,TGI,UO-31; molar,2.17E−6
same,CC50,"UO-31; read-out: LC50, molar",4.9 µM
same,Percent Growth,U251; Log10 Concentration −4.0,−77%
same,Percent Growth,U251; Log10 Concentration −5.0,−79%
same,Percent Growth,U251; Log10 Concentration −6.0,−18%
same,Percent Growth,U251; Log10 Concentration −7.0,91%
same,Percent Growth,U251; Log10 Concentration −8.0,96%
same,GI50,U251; molar,0.578 µM
same,TGI,U251; molar,2.00E−6
same,CC50,"U251; read-out: LC50, molar",5.13 µM
same,Percent Growth,SK-MEL-28; Log10 Concentration −4.0,−71%
same,Percent Growth,SK-MEL-28; Log10 Concentration −5.0,−77%
same,Percent Growth,SK-MEL-28; Log10 Concentration −6.0,−37%
same,Percent Growth,SK-MEL-28; Log10 Concentration −7.0,90%
same,Percent Growth,SK-MEL-28; Log10 Concentration −8.0,92%
same,GI50,SK-MEL-28; molar,0.205 µM
same,TGI,SK-MEL-28; molar,5.11E−7
same,CC50,"SK-MEL-28; read-out: LC50, molar",2.12 µM
same,Percent Growth,NCI-H522; Log10 Concentration −4.0,−66%
same,Percent Growth,NCI-H522; Log10 Concentration −5.0,−75%
same,Percent Growth,NCI-H522; Log10 Concentration −6.0,−57%
same,Percent Growth,NCI-H522; Log10 Concentration −7.0,89%
same,Percent Growth,NCI-H522; Log10 Concentration −8.0,86%
same,GI50,NCI-H522; molar,0.186 µM
same,TGI,NCI-H522; molar,4.07E−7
same,CC50,"NCI-H522; read-out: LC50, molar",0.893 µM
same,Percent Growth,HCT-15; Log10 Concentration −4.0,83%
same,Percent Growth,HCT-15; Log10 Concentration −5.0,−90%
same,Percent Growth,HCT-15; Log10 Concentration −6.0,16%
same,Percent Growth,HCT-15; Log10 Concentration −7.0,90%
same,Percent Growth,HCT-15; Log10 Concentration −8.0,91%
same,GI50,HCT-15; molar,0.346 µM
same,TGI,HCT-15; molar,1.41E−6
same,CC50,"HCT-15; read-out: LC50, molar",4.16 µM
same,Percent Growth,OVCAR-4; Log10 Concentration −4.0,−89%
same,Percent Growth,OVCAR-4; Log10 Concentration −5.0,−92%
same,Percent Growth,OVCAR-4; Log10 Concentration −6.0,34%
same,Percent Growth,OVCAR-4; Log10 Concentration −7.0,91%
same,Percent Growth,OVCAR-4; Log10 Concentration −8.0,90%
same,GI50,OVCAR-4; molar,0.521 µM
same,CC50,"OVCAR-4; read-out: LC50, molar",4.63 µM
same,Percent Growth,NCI-H322M; Log10 Concentration −4.0,−91%
same,Percent Growth,NCI-H322M; Log10 Concentration −5.0,−51%
same,Percent Growth,NCI-H322M; Log10 Concentration −6.0,100%
same,Percent Growth,NCI-H322M; Log10 Concentration −7.0,104%
same,Percent Growth,NCI-H322M; Log10 Concentration −8.0,107%
same,GI50,NCI-H322M; molar,2.14 µM
same,Percent Growth,UACC-62; Log10 Concentration −4.0,−77%
same,Percent Growth,UACC-62; Log10 Concentration −5.0,−84%
same,Percent Growth,UACC-62; Log10 Concentration −6.0,−39%
same,Percent Growth,UACC-62; Log10 Concentration −7.0,87%
same,Percent Growth,UACC-62; Log10 Concentration −8.0,96%
same,GI50,UACC-62; molar,0.197 µM
same,TGI,UACC-62; molar,4.88E−7
same,CC50,"UACC-62; read-out: LC50, molar",1.72 µM
same,Percent Growth,K-562; Log10 Concentration −4.0,−44%
same,Percent Growth,K-562; Log10 Concentration −5.0,−14%
same,Percent Growth,K-562; Log10 Concentration −6.0,2%
same,Percent Growth,K-562; Log10 Concentration −7.0,107%
same,Percent Growth,K-562; Log10 Concentration −8.0,103%
same,GI50,K-562; molar,0.349 µM
same,TGI,K-562; molar,1.37E−6
same,CC50,"K-562; read-out: LC50, molar",> 100 µM
same,Percent Growth,MALME-3M; Log10 Concentration −4.0,−65%
same,Percent Growth,MALME-3M; Log10 Concentration −5.0,−58%
same,Percent Growth,MALME-3M; Log10 Concentration −6.0,−55%
same,Percent Growth,MALME-3M; Log10 Concentration −7.0,95%
same,Percent Growth,MALME-3M; Log10 Concentration −8.0,95%
same,GI50,MALME-3M; molar,0.199 µM
same,CC50,"MALME-3M; read-out: LC50, molar",0.929 µM
same,Percent Growth,KM12; Log10 Concentration −4.0,−83%
same,Percent Growth,KM12; Log10 Concentration −5.0,−66%
same,Percent Growth,KM12; Log10 Concentration −6.0,65%
same,Percent Growth,KM12; Log10 Concentration −7.0,105%
same,Percent Growth,KM12; Log10 Concentration −8.0,102%
same,GI50,KM12; molar,1.29 µM
same,CC50,"KM12; read-out: LC50, molar",7.49 µM
same,Percent Growth,SK-OV-3; Log10 Concentration −4.0,−100%
same,Percent Growth,SK-OV-3; Log10 Concentration −5.0,10%
same,Percent Growth,SK-OV-3; Log10 Concentration −6.0,101%
same,Percent Growth,SK-OV-3; Log10 Concentration −7.0,108%
same,Percent Growth,SK-OV-3; Log10 Concentration −8.0,108%
same,GI50,SK-OV-3; molar,3.64 µM
same,Percent Growth,HCC-2998; Log10 Concentration −4.0,−92%
same,Percent Growth,HCC-2998; Log10 Concentration −5.0,−93%
same,Percent Growth,HCC-2998; Log10 Concentration −6.0,63%
same,Percent Growth,HCC-2998; Log10 Concentration −7.0,98%
same,Percent Growth,HCC-2998; Log10 Concentration −8.0,100%
same,GI50,HCC-2998; molar,1.2 µM
same,TGI,HCC-2998; molar,2.52E−6
same,CC50,"HCC-2998; read-out: LC50, molar",5.28 µM
same,Percent Growth,MDA-MB-231/ATCC; Log10 Concentration −4.0,−80%
same,Percent Growth,MDA-MB-231/ATCC; Log10 Concentration −5.0,−78%
same,Percent Growth,MDA-MB-231/ATCC; Log10 Concentration −6.0,−47%
same,Percent Growth,MDA-MB-231/ATCC; Log10 Concentration −7.0,92%
same,Percent Growth,MDA-MB-231/ATCC; Log10 Concentration −8.0,99%
same,GI50,MDA-MB-231/ATCC; molar,0.2 µM
same,TGI,MDA-MB-231/ATCC; molar,4.58E−7
same,CC50,"MDA-MB-231/ATCC; read-out: LC50, molar",1.24 µM
same,Percent Growth,COLO 205; Log10 Concentration −4.0,−65%
same,Percent Growth,COLO 205; Log10 Concentration −5.0,−73%
same,Percent Growth,COLO 205; Log10 Concentration −6.0,−15%
same,Percent Growth,COLO 205; Log10 Concentration −7.0,109%
same,Percent Growth,COLO 205; Log10 Concentration −8.0,104%
same,GI50,COLO 205; molar,0.3 µM
same,TGI,COLO 205; molar,7.56E−7
same,CC50,"COLO 205; read-out: LC50, molar",3.99 µM
same,Percent Growth,SW-620; Log10 Concentration −4.0,−77%
same,Percent Growth,SW-620; Log10 Concentration −5.0,−79%
same,Percent Growth,SW-620; Log10 Concentration −6.0,−18%
same,Percent Growth,SW-620; Log10 Concentration −7.0,91%
same,Percent Growth,SW-620; Log10 Concentration −8.0,91%
same,GI50,SW-620; molar,0.239 µM
same,TGI,SW-620; molar,6.86E−7
same,CC50,"SW-620; read-out: LC50, molar",3.37 µM
same,Percent Growth,BT-549; Log10 Concentration −4.0,−85%
same,Percent Growth,BT-549; Log10 Concentration −5.0,−80%
same,Percent Growth,BT-549; Log10 Concentration −6.0,−14%
same,Percent Growth,BT-549; Log10 Concentration −7.0,94%
same,Percent Growth,BT-549; Log10 Concentration −8.0,94%
same,GI50,BT-549; molar,0.257 µM
same,TGI,BT-549; molar,7.48E−7
same,CC50,"BT-549; read-out: LC50, molar",3.57 µM
same,Percent Growth,MDA-MB-435; Log10 Concentration −4.0,−86%
same,Percent Growth,MDA-MB-435; Log10 Concentration −5.0,−74%
same,Percent Growth,MDA-MB-435; Log10 Concentration −6.0,−18%
same,Percent Growth,MDA-MB-435; Log10 Concentration −7.0,92%
same,Percent Growth,MDA-MB-435; Log10 Concentration −8.0,91%
same,GI50,MDA-MB-435; molar,0.241 µM
same,TGI,MDA-MB-435; molar,6.86E−7
same,CC50,"MDA-MB-435; read-out: LC50, molar",3.74 µM
